IC50 data for 21 compounds are collected here from patent US12692254B2, “Benzimidazole inhibitors of PAD enzymes” (BRISTOL-MYERS SQUIBB COMPANY, priority 2018, dated 2026).

In this assay the target is human PAD4 (hPAD4) (Homo sapiens, UniProt Q9UM07). Put plainly: RFMS human PAD4 functional assay (rapid-fire mass spectrum). As to conditions: 5 nM hPAD4 enzyme, 250 μM BAEE, 50 μM Calcium; 30 min preincubation, 90 min reaction at 37° C. It counts as biochemical. A digest of the protocol: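 PAD4 (10 nM) preincubated 30 min with compound (top final 50 μM), then BAEE substrate added in pH 7.5 HEPES buffer with DTT, 50 μM calcium, TPEN; 90 min at 37° C. After TCA quench, citrulline derivatized with phenyl glyoxal (4 mM final, 30 min, 37° C) and quantified by RapidFire MS against internal standard.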
human PAD4 (hPAD4), sequence (Q9UM07 whole entry): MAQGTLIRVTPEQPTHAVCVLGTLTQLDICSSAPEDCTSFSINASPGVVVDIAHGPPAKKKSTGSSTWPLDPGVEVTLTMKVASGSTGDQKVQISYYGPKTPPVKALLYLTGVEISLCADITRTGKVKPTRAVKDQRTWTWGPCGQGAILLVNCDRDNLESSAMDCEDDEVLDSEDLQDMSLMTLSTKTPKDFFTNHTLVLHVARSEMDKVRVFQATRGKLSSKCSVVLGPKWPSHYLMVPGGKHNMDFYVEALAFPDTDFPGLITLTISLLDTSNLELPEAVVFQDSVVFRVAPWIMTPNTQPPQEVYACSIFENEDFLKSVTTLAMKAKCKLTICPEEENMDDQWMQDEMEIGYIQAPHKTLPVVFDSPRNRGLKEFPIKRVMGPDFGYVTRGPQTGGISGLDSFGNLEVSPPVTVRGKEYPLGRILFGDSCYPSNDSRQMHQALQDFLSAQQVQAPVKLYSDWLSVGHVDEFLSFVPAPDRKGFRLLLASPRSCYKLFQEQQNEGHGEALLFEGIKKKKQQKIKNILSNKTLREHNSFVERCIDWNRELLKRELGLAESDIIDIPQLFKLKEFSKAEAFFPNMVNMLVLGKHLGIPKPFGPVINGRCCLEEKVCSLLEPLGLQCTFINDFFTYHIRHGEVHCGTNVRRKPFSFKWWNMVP

Broadly, the IC50 is the concentration at which inhibition is half-maximal. With `COc1cc(C(=O)N2C[C@H]3CC[C@@H]2[C@@H]3N)cc2nc(-c3cc4ccccc4n3C)n(CC3CN(c4ccnc(C)n4)C3)c12` [Example 6, ((1R,4R,7R)-7-amino-2-azabicyclo[2.2.1]heptan-2-yl)(7-methoxy-2-(1-methyl-1H-indol-2-yl)-1-((1-(2-methylpyrimidin-4-yl)azetidin-3-yl)methyl)-1H-benzo[d]imidazol-5-yl)methanone], the IC50 is 78 nM. Under `COc1cc(C(=O)N2CC3CCC2[C@@H]3N)cc2nc(-c3cc4ccccc4n3CC3CC3)n(Cc3cnn(-c4cccnc4C#N)c3)c12` (stereo partly drawn) [Example 385, 3-[4-({5-[(7R)-7-amino-2-azabicyclo[2.2.1]heptane-2-carbonyl]-2-[1-(cyclopropylmethyl)-1H-indol-2-yl]-7-methoxy-1H-1,3-benzodiazol-1-yl}methyl)-1H-pyrazol-1-yl]pyridine-2-carbonitrile] stands 42 nM; under `COc1ncccc1-n1cc(Cn2c(-c3cc4cccnc4n3CC3CC3)nc3cc(C(=O)N4C[C@H](N)C[C@@H](F)C4)cc(OC)c32)cn1` [Example 343, (3R,5R)-1-{2-[1-(cyclopropylmethyl)-1H-pyrrolo[2,3-b]pyridin-2-yl]-7-methoxy-1-{[1-(2-methoxypyridin-3-yl)-1H-pyrazol-4-yl]methyl}-1H-1,3-benzodiazole-5-carbonyl}-5-fluoropiperidin-3-amine], 116 nM; under `COc1cc(C(=O)N2C[C@H]3CC[C@@H]2[C@@H]3N)cc2nc(-c3cc4cccnc4n3CC3CC3)n(C3CN(c4ccnc(C5CC5)n4)C3)c12` [Example 70, (1R,4R,7R)-2-{2-[1-(cyclopropylmethyl)-1H-pyrrolo[2,3-b]pyridin-2-yl]-1-[1-(2-cyclopropylpyrimidin-4-yl)azetidin-3-yl]-7-methoxy-1H-1,3-benzodiazole-5-carbonyl}-2-azabicyclo[2.2.1]heptan-7-amine], 87 nM. Regarding `COc1cc(C(=O)N2CC3CCC2[C@@H]3N)cc2nc(-c3cc4cccnc4n3CC3CC3)n(Cc3cnn(-c4cccc(C(F)(F)F)n4)c3)c12` (stereo partly drawn) [Example 356, (7R)-2-{2-[1-(cyclopropylmethyl)-1H-pyrrolo[2,3-b]pyridin-2-yl]-7-methoxy-1-({1-[6-(trifluoromethyl)pyridin-2-yl]-1H-pyrazol-4-yl}methyl)-1H-1,3-benzodiazole-5-carbonyl)-2-azabicyclo[2.2.1]heptan-7-amine], the IC50 is 23 nM. With `COc1cc(C(=O)N2C[C@H](N)C[C@@H](F)C2)cc2nc(-c3cc4ccccc4n3CC3CC3)n(CC3(C)CN(C(=O)c4ccccc4)C3)c12` [Example 460, (3R,5R)-1-{1-[(1-benzoyl-3-methylazetidin-3-yl)methyl]-2-[1-(cyclopropylmethyl)-1H-indol-2-yl]-7-methoxy-1H-1,3-benzodiazole-5-carbonyl}-5-fluoropiperidin-3-amine], the IC50 came out at 67 nM. Under `COc1cc(C(=O)N2C[C@H](N)C[C@@H](F)C2)cc2nc(-c3cc4ccccc4n3CC3CC3)n(CC3CC3)c12` [Example 480, (3R,5R)-1-[1-(cyclopropylmethyl)-2-[1-(cyclopropylmethyl)-1H-indol-2-yl]-7-methoxy-1H-1,3-benzodiazole-5-carbonyl]-5-fluoropiperidin-3-amine] stands 301 nM; under `COc1cc(C(=O)N2C[C@H]3CC[C@@H]2[C@@H]3N)cc2nc(-c3cc4cccnc4n3C)n(C[C@H]3CCN(c4ccnc(C#N)n4)C3)c12` [Example 210, 4-[(3S)-3-({5-[(1R,4R,7R)-7-amino-2-azabicyclo[2.2.1]heptane-2-carbonyl]-7-methoxy-2-{1-methyl-1H-pyrrolo[2,3-b]pyridin-2-yl}-1H-1,3-benzodiazol-1-yl}methyl)pyrrolidin-1-yl]pyrimidine-2-carbonitrile], 75 nM; under `COc1cc(C(=O)N2CC3CCC2[C@@H]3N)cc2nc(-c3cc4cccnc4n3CC3CC3)n(CC3CN(C(=O)C4CCC(F)(F)C4)C3)c12` (stereo partly drawn) [Example 430, (7R)-2-{2-[1-(cyclopropylmethyl)-1H-pyrrolo[2,3-b]pyridin-2-yl]-1-{[1-(3,3-difluorocyclopentanecarbonyl)azetidin-3-yl]methyl}-7-methoxy-1H-1,3-benzodiazole-5-carbonyl}-2-azabicyclo[2.2.1]heptan-7-amine], 30 nM. Turning to `COc1cc(C(=O)N2C[C@H]3CC[C@@H]2[C@@H]3N)cc2nc(-c3cc4cccnc4n3CC3CC3)n(C3CN(C(C)=O)C3)c12` [Example 191, 1-(3-{5-[(1R,4R,7R)-7-amino-2-azabicyclo[2.2.1]heptane-2-carbonyl]-2-[1-(cyclopropylmethyl)-1H-pyrrolo[2,3-b]pyridin-2-yl]-7-methoxy-1H-1,3-benzodiazol-1-yl}azetidin-1-yl)ethan-1-one], the half-maximal inhibitory concentration (IC50) worked out at 884 nM. As for `COc1cc(C(=O)N2CC3CCC2[C@@H]3N)cc2nc(-c3cc4cccnc4n3CC3CC3)n(Cc3cnn(-c4ccc(Cl)cn4)c3)c12` (stereo partly drawn) [Example 360, (7R)-2-(1-{[1-(5-chloropyridin-2-yl)-1H-pyrazol-4-yl]methyl}-2-[1-(cyclopropylmethyl)-1H-pyrrolo[2,3-b]pyridin-2-yl]-7-methoxy-1H-1,3-benzodiazole-5-carbonyl)-2-azabicyclo[2.2.1]heptan-7-amine], the figure is 24 nM; as for `COc1cc(C(=O)N2CC3CCC2[C@@H]3N)cc2nc(-c3cc4ccccc4n3CC3CC3)n(Cc3cnnn3C)c12` (stereo partly drawn) [Example 514, (7R)-2-{2-[1-(cyclopropylmethyl)-1H-indol-2-yl]-7-methoxy-1-[(1-methyl-1H-1,2,3-triazol-5-yl)methyl]-1H-1,3-benzodiazole-5-carbonyl}-2-azabicyclo[2.2.1]heptan-7-amine], 409 nM; as for `COc1cc(C(=O)N2C[C@H]3CC[C@@H]2[C@@H]3N)cc2nc(-c3cc4ccc(Cl)cc4n3CC3CC3)n(CC3CN(c4ccnc(C)n4)C3)c12` [Example 9, (1R,4R,7R)-2-{2-[6-chloro-1-(cyclopropylmethyl)-1H-indol-2-yl]-7-methoxy-1-{[1-(2-methylpyrimidin-4-yl)azetidin-3-yl]methyl}-1H-1,3-benzodiazole-5-carbonyl}-2-azabicyclo[2.2.1]heptan-7-amine], 21 nM. On to `N#Cc1ccc(C(=O)N2CC(Cn3c(-c4cc5cccnc5n4CC4CC4)nc4cc(C(=O)N5C[C@H]6CC[C@@H]5[C@@H]6N)cc(Cl)c43)C2)cc1` [Example 96, 4-[3-({5-[(1R,4R,7R)-7-amino-2-azabicyclo[2.2.1]heptane-2-carbonyl]-7-chloro-2-[1-(cyclopropylmethyl)-1H-pyrrolo[2,3-b]pyridin-2-yl]-1H-1,3-benzodiazol-1-yl}methyl)azetidine-1-carbonyl]benzonitrile], for which the concentration for half-maximal inhibition (IC50) stood at 83 nM. As for `COc1cc(C(=O)N2C[C@H](N)C[C@@H](F)C2)cc2nc(-c3cc4ccccc4n3CC3CC3)n(Cc3cnn(-c4ccccc4)c3)c12` [Example 261, (3R,5R)-1-{2-[1-(cyclopropylmethyl)-1H-indol-2-yl]-7-methoxy-1-[(1-phenyl-1H-pyrazol-4-yl)methyl]-1H-1,3-benzodiazole-5-carbonyl}-5-fluoropiperidin-3-amine], the figure is 49 nM. As for `COc1cc(C(=O)N2CC3CCC2[C@@H]3N)cc2nc(-c3cc4ccccc4n3CC3CC3)n(CC3CN(C(=O)c4cscn4)C3)c12` (stereo partly drawn) [Example 453, (7R)-2-{2-[1-(cyclopropylmethyl)-1H-indol-2-yl]-7-methoxy-1-{[1-(1,3-thiazole-4-carbonyl)azetidin-3-yl]methyl}-1H-1,3-benzodiazole-5-carbonyl}-2-azabicyclo[2.2.1]heptan-7-amine], the figure is 53 nM; as for `COc1cc(C(=O)N2C[C@H]3CC[C@@H]2[C@@H]3N)cc2nc(-c3cc4ccccc4n3CC3CC3)n(Cc3cccs3)c12` [Example 256, (1R,4R,7R)-2-{2-[1-(cyclopropylmethyl)-1H-indol-2-yl]-7-methoxy-1-[(thiophen-2-yl)methyl]-1H-1,3-benzodiazole-5-carbonyl}-2-azabicyclo[2.2.1]heptan-7-amine], 41 nM. `COc1cc(C(=O)N2C[C@H]3CC[C@@H]2[C@@H]3N)cc2nc(-c3cc4ccccc4n3CC3CC3)n(CC3CN(C(=O)C4CCCC4)C3)c12` [Example 144, (1R,4R,7R)-2-{1-[(1-cyclopentanecarbonylazetidin-3-yl)methyl]-2-[1-(cyclopropylmethyl)-1H-indol-2-yl]-7-methoxy-1H-1,3-benzodiazole-5-carbonyl}-2-azabicyclo[2.2.1]heptan-7-amine]: the IC50 came out at 17 nM. As for `COc1cc(C(=O)N2CC3CCC2[C@@H]3N)cc2nc(-c3cc4ccc(C(C)O)cc4n3CC3CC3)n(CC3CN(C(=O)c4ccc(C#N)cc4)C3)c12` (stereo partly drawn) [Example 523, 4-[3-({5-[(7R)-7-amino-2-azabicyclo[2.2.1]heptane-2-carbonyl]-2-[1-(cyclopropylmethyl)-6-(1-hydroxyethyl)-1H-indol-2-yl]-7-methoxy-1H-1,3-benzodiazol-1-yl}methyl)azetidine-1-carbonyl]benzonitrile], the figure is 34 nM; as for `COc1cc(-n2cc(Cn3c(-c4cc5ccccc5n4CC4CC4)nc4cc(C(=O)N5CC6CCC5[C@@H]6N)cc(OC)c43)cn2)ccn1` (stereo partly drawn) [Example 366, (7R)-2-{2-[1-(cyclopropylmethyl)-1H-indol-2-yl]-7-methoxy-1-{[1-(2-methoxypyridin-4-yl)-1H-pyrazol-4-yl]methyl}-1H-1,3-benzodiazole-5-carbonyl}-2-azabicyclo[2.2.1]heptan-7-amine], 28 nM. Under `COc1cc(C(=O)N2CC3CCC2[C@@H]3N)cc2nc(-c3cc4cccnc4n3CC3CC3)n(C3CN(S(=O)(=O)c4ccc(C#N)cc4)C3)c12` (stereo partly drawn) [Example 339, 4-[(3-{5-[(1R,4R,7R)-7-amino-2-azabicyclo[2.2.1]heptane-2-carbonyl]-2-[1-(cyclopropylmethyl)-1H-pyrrolo[2,3-b]pyridin-2-yl]-7-methoxy-1H-1,3-benzodiazo1-1-yl}azetidin-1-yl)sulfonyl]benzonitrile] stands 536 nM.
